# Measurements reported in PubChem BioAssay (NCI).
#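 Results reflect a 48-hour exposure of cells in 96-well plates to compound at five concentrations. Abbreviation: GI50, concentration required for 50% inhibition of growth. Definition used: TGI = concentration required for complete inhibition of growth.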
# How the values were obtained:
# Assay in all cases: NCI anticancer screen, dose series, 48 h
# OVCAR-3 ovarian = tested on: OVCAR-3 ovarian
# COLO 205 colon = tested on: COLO 205 colon
# UACC-62 melanoma = tested on: UACC-62 melanoma
# BT-549 breast = tested on: BT-549 breast
# A549 NSCLC = tested on: A549 NSCLC
# IGROV1 ovarian = tested on: IGROV1 ovarian
# RXF 393 renal = tested on: RXF 393 renal
# PC-3 prostate = tested on: PC-3 prostate
# SK-OV-3 ovarian = tested on: SK-OV-3 ovarian
# OVCAR-4 ovarian = tested on: OVCAR-4 ovarian
SMILES,GI50 (OVCAR-3 ovarian),TGI (OVCAR-3 ovarian),GI50 (COLO 205 colon),TGI (COLO 205 colon),GI50 (UACC-62 melanoma),TGI (UACC-62 melanoma),GI50 (BT-549 breast),TGI (BT-549 breast),GI50 (A549 NSCLC),TGI (A549 NSCLC),GI50 (IGROV1 ovarian),TGI (IGROV1 ovarian),GI50 (RXF 393 renal),TGI (RXF 393 renal),GI50 (PC-3 prostate),TGI (PC-3 prostate),GI50 (SK-OV-3 ovarian),TGI (SK-OV-3 ovarian),TGI (OVCAR-4 ovarian),GI50 (OVCAR-4 ovarian)
O=C1NN(c2ccc(C(=O)O)cc2)C(=O)/C1=C\c1ccc([N+](=O)[O-])o1,20.9 µM,42.3 µM,20.9 µM,38.8 µM,62 µM,> 100 µM,> 100 µM,> 100 µM,> 100 µM,> 100 µM,20.5 µM,52.6 µM,40.7 µM,> 100 µM,> 100 µM,> 100 µM,> 100 µM,> 100 µM,,
Cc1cc(NS(=O)(=O)c2ccc(N=Nc3cc(N=Nc4ccc(S(=O)(=O)Nc5cc(C)nc(C)n5)cc4)c4c(NC(=O)C(Cl)Cl)cccc4c3OC(=O)C(Cl)Cl)cc2)nc(C)n1 (tested in a mixture with another compound),,33 µM,,74.9 µM,,51.4 µM,,,,> 100 µM,,53.2 µM,,38.7 µM,,,,> 100 µM,43.7 µM,
[O-]c1c2c(nn1-c1ccccc1)c1ccccc1c[n+]2Cc1ccccc1,,> 100 µM,,> 100 µM,,> 100 µM,,,,> 100 µM,,> 100 µM,,7.33 µM,,,,> 100 µM,> 100 µM,
COC(=O)C1=C(O)c2cc(OC)c(OC)c(OC)c2[C@H](c2cc(OC)c(OC)c(OC)c2)C1C(=O)OC (some centres not stated),,58.4 µM,,37.9 µM,,76 µM,,,,> 100 µM,,> 100 µM,,59.5 µM,,,,> 100 µM,> 100 µM,
COC(=O)C1=C2CCC(=O)[C@@]2(C)C(OC(C)=O)C=CC1 (some centres not stated),,> 100 µM,,,,> 100 µM,,,,> 100 µM,,> 100 µM,,> 100 µM,,,,> 100 µM,> 100 µM,
CCC[CH2][Sn]1([CH2]CCC)[O]C(=O)c2cc(I)cc(I)c2[O]1,1.42 µM,2.77 µM,0.702 µM,1.97 µM,1.01 µM,2.17 µM,,,2.72 µM,8.41 µM,1.81 µM,3.36 µM,0.559 µM,1.97 µM,,,2.09 µM,4.65 µM,2.83 µM,1.41 µM
CCOC(=O)/C(O)=C(/c1n[nH]c(=O)c2ccccc12)[N+](=O)[O-],,> 100 µM,,> 100 µM,,> 100 µM,,,,> 100 µM,,> 100 µM,,> 100 µM,,,,> 100 µM,> 100 µM,
O=c1cccccc1NCCOCCNc1cccccc1=O,,> 100 µM,,> 100 µM,,> 100 µM,,,,> 100 µM,,> 100 µM,,,,,,> 100 µM,> 100 µM,
CCCN(CCCCC(NC(C)=O)C(=O)NCc1ccccc1)C(=O)N(C)N=O (configuration not stated),,> 100 µM,,> 100 µM,,> 100 µM,,,,> 100 µM,,> 100 µM,,> 100 µM,,,,> 100 µM,> 100 µM,
COc1cc(C2=NN(C)C(c3ccc([N+](=O)[O-])o3)C2)cc(OC)c1OC (configuration not stated),,,,> 100 µM,,> 100 µM,,,,> 100 µM,,> 100 µM,,,,,,> 100 µM,> 100 µM,
O=S(=O)(/C=C/c1ccc(Cl)cc1Cl)Cc1ccccc1CS(=O)(=O)/C=C/c1ccc(Cl)cc1Cl,,> 100 µM,,> 100 µM,,> 100 µM,,,,> 100 µM,,> 100 µM,,> 100 µM,,,,> 100 µM,> 100 µM,
